# Values quoted from earlier work, collected in publication PMC10801393 (Clinical and Translational Science, 2024).
# Like-named read-outs stand apart in the source and are kept apart here.
# Tests used:
# [1] = not given; remark: listed apart in the source
# [2] = tamoxifen 20 mg/day
smiles,measurement,setting,value
Cc1ncc2n1-c1ccc(Cl)cc1C(c1ccccc1F)=NC2 [midazolam],oral clearance geometric mean,postmenopausal group,24.10 mL/min/kg
same,oral clearance geometric mean,premenopausal group,30.09 mL/min/kg
"CC(C)(C(=O)O)c1ccc(C(O)CCCN2CCC(C(O)(c3ccccc3)c3ccccc3)CC2)cc1 (centres unmarked) [fexofenadine, Fexofenadine]",BDDCS class,[1],class 3
"CC/C(=C(\c1ccccc1)c1ccc(OCCN(C)C)cc1)c1ccccc1 [tamoxifen, Tamoxifen]",steady‐state plasma concentration (C ss),[2]; postmenopausal patients,201.23 ng/mL
same,steady‐state plasma concentration (C ss),[2]; premenopausal patients,116.95 ng/mL
